Data reported in patent US11779559B2, “Compositions for treating fungal and bacterial biofilms and methods of using the same” (priority 2017, dated 2023).

Columns and labels:
C. albicans [1] = experiment: Sustained inhibition biofilm assay, fungal; type: cell-based, Candida albicans; settings: sustained inhibition assay; C. albicans; 1% amino acid (unless specifically noted); p≤0.001
Description: (§1) Two types of biofilm assays were performed: a sustained inhibition assay and a disruption assay. The sustained inhibition assay assesses the compound's ability to prevent biofilm development throughout all stages of biofilm formation, while the disruption assay assesses the compound's ability to break up an existing mature biofilm. These assays are described in detail in the following article: Lohse, M. B., Gulati, M., Valle Arevalo, A., Fishburn, A., Johnson, A. D., and Nobile, C. […] Antimicrobial Agents and Chemotherapy 61: e02749-16.
(§2) All bacterial biofilm solutions were prepared in Trypic Soy Broth (TSB), supplemented with 1% glucose (henceforth referred to as TSB-G). All subsequent procedures were performed in a manner that maintained sterility. A solution of each amino acid to be tested was prepared in weight to volume concentrations ranging from 0.1-5.0%. Amino acids were also tested in combinations. Compound solutions were homogenized with gentle agitation in the dark (4° C., 24 hours) before use.
(§3) Fungal strains were streaked on Yeast Peptone Dextrose (YPD) agar plates and incubated at 30° C. for 48 hours. A single colony from each strain to be tested was inoculated into YPD broth and grown for 12 hours, at 30° C., shaking at 225 rpm. […] The cells were allowed to adhere to the plate for 90 minutes at 37° C. with shaking (350 rpm). […] The plate was further incubated for 24 hours at 37° C. with shaking (350 rpm). Media was carefully aspirated and the biofilm was measured by optical density at 600 nm. […] The cells were allowed to adhere to the plate for 90 minutes at 37° C. with shaking (350 rpm). […] The plate was further incubated for 24 hours at 37° C. with shaking (350 rpm). […] The plate was further incubated for 24 hours at 37° C. with shaking (350 rpm). Media was carefully aspirated and the biofilm was measured by optical density at 600 nm.

C. albicans [2] = experiment: Disruption biofilm assay, fungal; type: cell-based, Candida albicans; settings: disruption assay; C. albicans; 1% amino acid (unless specifically noted); p≤0.001
Description: as §1, §2, §3

S. aureus [3] = experiment: Sustained inhibition biofilm assay, bacterial; type: cell-based, Staphylococcus aureus; settings: sustained inhibition assay; S. aureus; 1% amino acid (unless specifically noted); p≤0.001
Description: as §1, §2
(§4) Bacterial strains were streaked on Blood Agar plates (5% sheep blood in Tryptic Soy Agar) and incubated at 37° C. for 24 hours. A single colony from each strain to be tested was inoculated in a TSB broth and grown for 12 hours, at 37° C. with shaking (225 rpm). For the bacterial biofilm inhibition assays, 1 μL of saturated overnight cell culture was added to either 80 μL of TSB-G, or TSB-G supplemented with the amino acid compound solution to be tested, in a 384-well plate. The cells were allowed to adhere to the plate for 60 minutes at 37° C. without shaking. The media was carefully aspirated and 80 μL of TSB-G, or TSB-G supplemented with the amino acid compound solution was added to the plate. The plate was further incubated for 24 hours at 37° C. without shaking. Media was carefully aspirated and the biofilm was measured by optical density at 600 nm. Eight or twelve replicates were performed for each tested condition and the reported values are normalized to the control (TSB-G media only). For the bacterial biofilm disruption assays, 80 μL of TSB-G was added to the plate, along with 1 μL of overnight cell culture. The cells were allowed to adhere to the plate for 60 minutes at 37° C. with no shaking. The media was carefully aspirated and 80 μL of TSB-G was added to the plate. The plate was further incubated for 24 hours at 37° C. with no shaking. Media was carefully aspirated from the mature biofilm and 80 μL of TSB-G, or TSB-G supplemented with the amino acid to be tested, was gently added to the plate. The plate was further incubated for 24 hours at 37° C. without shaking. Media was aspirated and the biofilm was measured by optical density at 600 nm. Twelve replicates were performed for each tested condition and the reported values are normalized to the control (TSB-G media only).

S. aureus [4] = experiment: Disruption biofilm assay, bacterial; type: cell-based, Staphylococcus aureus; settings: Staphylococcus aureus, 24 h; disruption assay; S. aureus; 1% amino acid (unless specifically noted); p≤0.001; read-out: Reduce B Biofilm
Description: as §1, §2, §4

## N[C@@H](CC(=O)O)C(=O)O [Aspartic Acid, L-aspartic acid]
C. albicans [1]
  Reduce F Biofilm: ●● (two dots [ie. ••] signifies major effect (greater than about 30% change))
C. albicans [2]
  Reduce F Biofilm: ●● (two dots [ie. ••] signifies major effect (greater than about 30% change))
S. aureus [3]
  Reduce B Biofilm: ●● (two dots [ie. ••] signifies major effect (greater than about 30% change))
S. aureus [4]
  inhibition at 1 %: > 30%
